Laboratory results taken from patent publication US5110976A, “Insecticidal composition comprising more than one active ingredient” (priority 1985, dated 1992).
Values after ≈ are worked out from the molar mass of the structure shown.

Columns and labels:
[1] = system: Leptinotarsa decemlineata; assay: Topical test on potato beetle (Table 6); assay type: in vivo, imagos; settings: 24 h
Method: The active ingredients are dissolved in 2-ethoxyethanol and […] of the solutions are applied onto the abdominal sterna of potato beetle (Leptinotarsa decemlineata) imagos. The treatments are carried out by using two parallels and 10 insects for each dose. […]

Hyphantria cunea [2] = assay: Topical test on fall webworm (Table 8); assay type: in vivo, L7-L8 larvae; settings: 24 h
Method: (§1) The active ingredients are dissolved in 2-ethoxyethanol and the solutions are applied in the form of 0.2 μl droplets onto the back of fall webworm (Hyphantria cunea) of L7 -L8 larvae stage. The treated worms are placed on strawberry leaves in Petri-dishes. The test is carried out by using 5 doses; 2 parallels and 10 insects for each dose.

L. decemlineata [3] = assay: 5 EC formulation sprayed on glass plates (Table 9); assay type: in vivo, Colorado beetle (L. decemlineata), imagos; settings: 48 hours
Method: (§2) From a 5 EC formulation according to Example 17 50-, 100-, 200-, 400-, 800- and 1600-fold diluted emulsions are prepared by diluting with water. 0.5 ml of the emulsions are sprayed onto glass plates whereupon after drying 10 Colorado beetles (L. decemlineata) imagos are placed on each glass plate and the insects are covered. The tests are carried out with 6 doses by carrying out 3 parallels for each dose. The killed insects are counted after 48 hours and the percental mortality rate is calculated.

Acanthoscelides obtectus [4] = assay: 5 EC formulation, insecticidal effect on bean weevil (Table 10); assay type: in vivo, bean weevil (Acanthoscelides obtectus), imagos; settings: 24 hours
Method: as §2
The insecticidal effect is tested on been weevil (Acanthoscelides obtectus) imagos. The killed insects are counted after 24 hours and the percental mortality rate is calculated.

Colorado potato beetle [5] = assay: Topical test on Colorado potato beetle (Table 14); assay type: in vivo, Colorado potato beetle (Leptinotersa decemlineata), imago
Method: In Table 14 the activity on Colorado potato beetle is shown.
The test materials are dissolved in 2-ethoxyethanol (Cellosolve). One 0.3 μl drop of the solution is applied to the abdominal sterna of the imago. The treatment is carried out by using 2 parallels and 10 insects for each dose. […]

Hyphantria cunea [6] = assay: Topical test on fall webworm (Table 18); assay type: in vivo, fall wetworm (Hyphantria cunea), L7-L8 larvae
Method: as §1, with “2-ethoxy-ethanol” for “2-ethoxyethanol”, “wetworm” for “webworm”, “[…],” for “5 doses;”, “dose. The killed worms are counted after 24 hours and the percental mortality rate is calculated.” for “dose.”

Tetranychus urticae = assay: Potter Tower spray on mite-infested leaves (Table 19); assay type: in vivo, mites (Tetranychus urticae); settings: mortality after 24 hours
Method: Leaves already infested with mites (Tetranychus urticae) were sprayed under Potter Tower. Mortality after 24 hours on the treated leaves was compared with the control.

L. decemlineata [7] = assay: 5 EC formulations sprayed on glass plates (Table 20); assay type: in vivo, imagos; settings: 5 EC formulation, 48 hours
Method: (§3) The 5 EC formulations prepared according to Example 42 are diluted 50x, 100x, 200x, 400x, 800x and 1600x with water and 0.5 ml doses are sprayed onto glass plates. After drying 10 L. decemlineata imagos are placed on each glass plate and the insects are covered with Petri-dishes. The tests are carried out by using 6 doses and 3 parallels for each dose. The killed insects are counted after 48 hours.

Acanthoscelides obtectus [8] = assay: 5 EC formulations sprayed on glass plates (Table 21); assay type: in vivo, bean weevil (Acanthoscelides obtectus), imagos; settings: 5 EC formulation, 24 hours
Method: as §3
Glass plates are sprayed with 5 EC formulations prepared according to Example 42 in an analogous manner to Example 52. After drying 10 bean weevil (Acanthoscelides obtectus) imagos are placed on each plate and the insects are covered with Petri-dishes. The killed insects are counted after 24 hours. The test is carried out with 6 doses by using 3 parallels for each dose.

A. matricariae [9] = assay: Direct contact test of pupae (Table 5); assay type: in vivo
Method: Mature pupae of A. matricariae on paprika leaves in Petri dishes are exposed to a direct spray of the active ingredients.
Two or three days before emergence paprika leaves with parasitized pupae are used. The leaves are laid on filter paper in a plastic Petri dish The filter paper is moistened.
Application of treatment: See Example 23.
The pieces of leaf are transferred after treatment to clean Petri dish bottoms The trays are stored in a clinic chamber at 20° C. temperature, 70% relative humidity and a light-dark cycle of […]. Surviving pupae hatch after 2-3 days. The numbers of hatched and dead pupae are counted.

Myzus persicae = assay: 5 EC formulations on aphid-infected bean plants (Table 22); assay type: in vivo, green peach aphids (Myzus persicae)
Method: 15 bean plants infected with green peach aphids (Myzus persicae) at 6 days' age are cultivated in each pot. At 12 days' age the strongly and uniformly infected plants are selected and sprayed to run-off with emulsions freshly prepared from the formulation according to Example 42. Treatments are carried out with three doses (active ingredient 2.5, 5 and 10 ppm) and four parallels are used (one pot per parallel). The second, fourth and eighth day after treatment the aphids are swept down from the plants to a white paper with a fine brush and the live insects are counted.

Colorado potato beetle [10] = assay: Plot field test on Colorado potato beetle (Table 24); assay type: in vivo, adults; settings: 10 g active ingredients/ha
Method: The treatments are performed on a 25 m^2 plot strongly infected with Colorado potato beetle. 10 plants per plot are specially marked on which the Colorado potato beetles were counted previously. (During assessment of the number of pests only adults of the second Summer generation are taken into consideration, because at the point of time of the test the ratio of larvae of stages L3 and L4 is negligible). Treatment is accomplished on 25 M^2 plots at a dose of 10 g of active ingredients/ha with aqueous suspensions of the formulations according to Example 37 and three parallels are used. The test is evaluated by counting the leave insects on the marked plants. The average values of three parallel tests are disclosed in Table 24.

Aphidinus matricariae = assay: Residual contact test on adults (Table 25); assay type: in vivo, adult females
Method: Residual contact test on adults of Aphidinus matricariae. Adults of A. matricariae are exposed to residues of the active ingredients freshly applied on glass plates forming cages, then the survivors are counted.
Treatment: test product and control treated with water.
Replicates: at least 3. Plot size (net): 1 cage.
Parasites of known age (24 hours) are used. […]
10 females of A. matricariae are introduced into each cage and supplied with honey as food. The number of females surviving exposure is determined after 1, 5 and 24 hours, in independent runs. Total number of survivors is calculate for each cage.

A. matricariae [11] = assay: Direct contact test on pupae (Table 26); assay type: in vivo
Method: Mature pupae of A. matricariae on paprika leaves in Petri-dishes are exposed to a direct spray of the active ingredients. Two or three days before emergence paprika leaves with parasitized pupae are used. The leaves are laid on moistened filter paper in a plastic Petri-dish.
Application of treatment: See Example 57.
The pieces of leaf are transferred after treatment to clean Petri-dish bottoms. The trays are stored in a climatic chamber at 20° C. temperature, 70% relative humidity and a light-dark cycle of 16-8 h. Surviving pupae hatch after 2-3 days. The numbers of hatched and dead pupae are counted.

Musca domestica = settings: bioresmetrine = 100; cited from earlier work
Phaedon cochleariae = settings: bioresmetrine = 100; cited from earlier work

CC1(C)C(C=C(Cl)Cl)C1C(=O)OC(C#N)c1cccc(Oc2ccccc2)c1 (stereo not drawn) [cypermethrin]
mortality at 0.05 µg/insect ([1]; 0.05 μg/insect): 0% | mortality at 0.1 µg/insect ([1]; 0.10 μg/insect): 20% | mortality at 0.2 µg/insect ([1]; 0.20 μg/insect): 45% | mortality at 0.4 µg/insect ([1]; 0.40 μg/insect): 75% | mortality at 0.023 µg/larva (Hyphantria cunea [2]; 0.023 μg/larvae): 0% | mortality at 0.047 µg/larva (Hyphantria cunea [2]; 0.047 μg/larvae): 0% | mortality at 0.094 µg/larva (Hyphantria cunea [2]; 0.094 μg/larvae): 25% | mortality at 0.188 µg/larva (Hyphantria cunea [2]; 0.188 μg/larvae): 50% | mortality at 0.375 µg/larva (Hyphantria cunea [2]; 0.375 μg/larvae): 75% | Mortality % (L. decemlineata [3]; dilution 50x): 83% | Mortality % (L. decemlineata [3]; dilution 100x): 67% | Mortality % (L. decemlineata [3]; dilution 200x): 50% | Mortality % (L. decemlineata [3]; dilution 400x): 33% | Mortality % (L. decemlineata [3]; dilution 800x): 17% | Mortality % (L. decemlineata [3]; dilution 1600x): 0% | Mortality % (Acanthoscelides obtectus [4]; dilution 50x): 60% | Mortality % (Acanthoscelides obtectus [4]; dilution 100x): 43% | Mortality % (Acanthoscelides obtectus [4]; dilution 200x): 20% | Mortality % (Acanthoscelides obtectus [4]; dilution 400x): 10% | Mortality % (Acanthoscelides obtectus [4]; dilution 800x): 3% | Mortality % (Acanthoscelides obtectus [4]; dilution 1600x): 0% | 24 hours' mortality % (Colorado potato beetle [5]; 0.05 μg/beetle): 0% | 24 hours' mortality % (Colorado potato beetle [5]; 0.10 μg/beetle): 20% | 24 hours' mortality % (Colorado potato beetle [5]; 0.20 μg/beetle): 45% | 24 hours' mortality % (Colorado potato beetle [5]; 0.40 μg/beetle): 75% | 24 hours' mortality (Hyphantria cunea [6]; 0.023 (μg/disc), 1440 min): 0% | 24 hours' mortality (Hyphantria cunea [6]; 0.047 (μg/disc), 1440 min): 10% | 24 hours' mortality (Hyphantria cunea [6]; 0.094 (μg/disc), 1440 min): 25% | 24 hours' mortality (Hyphantria cunea [6]; 0.188 (μg/disc), 1440 min): 50% | 24 hours' mortality (Hyphantria cunea [6]; 0.375 (μg/disc)): 75% | approx. LD50 (Tetranychus urticae; 1440 min): ~0.120 ppm | Mortality % (L. decemlineata [7]; dilution 50x, 2880 min): 83% | Mortality % (L. decemlineata [7]; dilution 100x, 2880 min): 67% | Mortality % (L. decemlineata [7]; dilution 200x, 2880 min): 50% | Mortality % (L. decemlineata [7]; dilution 400x, 2880 min): 33% | Mortality % (L. decemlineata [7]; dilution 800x, 2880 min): 17% | Mortality % (L. decemlineata [7]; dilution 1600x): 0% | Mortality % (Acanthoscelides obtectus [8]; dilution 50x, 1440 min): 60% | Mortality % (Acanthoscelides obtectus [8]; dilution 100x, 1440 min): 45% | Mortality % (Acanthoscelides obtectus [8]; dilution 200x, 1440 min): 20% | Mortality % (Acanthoscelides obtectus [8]; dilution 400x, 1440 min): 10% | Mortality % (Acanthoscelides obtectus [8]; dilution 800x, 1440 min): 3% | Mortality % (Acanthoscelides obtectus [8]; dilution 1600x, 1440 min): 0%

CC1(C)[C@H](C(=O)O[C@H](C#N)c2cccc(Oc3ccccc3)c2)[C@@H]1C=C(Br)Br [deltamethrin]
Mortality % (A. matricariae [9]; 1 ppm): 0% | Mortality % (A. matricariae [9]; 5 ppm): 0% | Mortality % (A. matricariae [9]; 10 ppm): 33.0% | Mortality % (A. matricariae [9]; 30 ppm): 75.0% | mortality at 0.05 µg/beetle (Colorado potato beetle [5]; Leptinotarsa decemlineata, topical, read-out: 24 hours' mortality %, 0.05 μg/beetle): 45% | mortality at 0.1 µg/beetle (Colorado potato beetle [5]; Leptinotarsa decemlineata, topical, read-out: 24 hours' mortality %, 0.10 μg/beetle): 60% | mortality at 0.2 µg/beetle (Colorado potato beetle [5]; Leptinotarsa decemlineata, topical, read-out: 24 hours' mortality %, 0.20 μg/beetle): 75% | mortality at 0.4 µg/beetle (Colorado potato beetle [5]; Leptinotarsa decemlineata, topical, read-out: 24 hours' mortality %, 0.40 μg/beetle): 85% | LC50 (Tetranychus urticae; Tetranychus urticae, 24 h, read-out: approx. LD50): ~0.185 µg/mL (≈ 0.366 µM) | Mortality % (L. decemlineata [7]; dilution 50x): 100% | Mortality % (L. decemlineata [7]; dilution 100x): 83% | Mortality % (L. decemlineata [7]; dilution 200x): 67% | Mortality % (L. decemlineata [7]; dilution 400x): 53% | Mortality % (L. decemlineata [7]; dilution 800x): 35% | Mortality % (L. decemlineata [7]; dilution 1600x): 7% | Mortality % (Acanthoscelides obtectus [8]; dilution 50x): 75% | Mortality % (Acanthoscelides obtectus [8]; dilution 100x): 57% | Mortality % (Acanthoscelides obtectus [8]; dilution 200x): 37% | Mortality % (Acanthoscelides obtectus [8]; dilution 400x): 20% | Mortality % (Acanthoscelides obtectus [8]; dilution 800x): 13% | Mortality % (Acanthoscelides obtectus [8]; dilution 1600x): 7% | Average number of aphids per pot (Myzus persicae; 2.5 ppm, 2 days after treatment (control 1850)): 26 | Average number of aphids per pot (Myzus persicae; 2.5 ppm, 4 days after treatment (control 2780)): 47 | Average number of aphids per pot (Myzus persicae; 2.5 ppm, 8 days after treatment (control 4120)): 137 | Average number of aphids per pot (Myzus persicae; 5.0 ppm, 2 days after treatment (control 1850)): 13 | Average number of aphids per pot (Myzus persicae; 5.0 ppm, 4 days after treatment (control 2780)): 19 | Average number of aphids per pot (Myzus persicae; 5.0 ppm, 8 days after treatment (control 4120)): 29 | Average number of aphids per pot (Myzus persicae; 10.0 ppm, 2 days after treatment (control 1850)): 6 | Average number of aphids per pot (Myzus persicae; 10.0 ppm, 4 days after treatment (control 2780)): 11 | Average number of aphids per pot (Myzus persicae; 10.0 ppm, 8 days after treatment (control 4120)): 23 | Average number of live insects/10 plants (Colorado potato beetle [10]; 0 days after treatment (control 211)): 181 | Average number of live insects/10 plants (Colorado potato beetle [10]; 1 day after treatment (control 206)): 7 | Average number of live insects/10 plants (Colorado potato beetle [10]; 3 days after treatment (control 179)): 10 | Average number of live insects/10 plants (Colorado potato beetle [10]; 9 days after treatment (control 183)): 19 | Mortality % (Aphidinus matricariae; 1 ppm, 1h): 20% | Mortality % (Aphidinus matricariae; 1 ppm, 5h): 100% | Mortality % (Aphidinus matricariae; 1 ppm, 24h): 85% | Mortality % (Aphidinus matricariae; 5 ppm, 1h): 100% | Mortality % (A. matricariae [11]; 1 ppm): 0% | Mortality % (A. matricariae [11]; 5 ppm): 0% | Mortality % (A. matricariae [11]; 10 ppm): 33.0% | Mortality % (A. matricariae [11]; 33 ppm): 75.0%

CC1(C)[C@H](C=C(Cl)Cl)[C@H]1C(=O)O[C@@H](C#N)c1cccc(Oc2ccccc2)c1 [1RtransR]
activity related to bioresmetrine (100) (Musca domestica): 81 | activity related to bioresmetrine (100) (Phaedon cochleariae): 110
